Values of other authors as cited in publication PMC3865603 (Cancer chemotherapy and pharmacology, 2011).

Experiments:
patients = details: cited from earlier work
[1] = cited from earlier work
tubulin in PBMCs = details: ixabepilone RP2D 40 mg/m^2, 1 h after infusion, n = 27; cited from earlier work

Structure (SMILES) | DLTs (patients) | in vivo activity relative to other epothilones [1] | neurotoxicity in phase II trials (patients) | mean MBF (tubulin in PBMCs)
C=CC[C@H]1C(=O)C(C)(C)[C@@H](O)CC(=O)O[C@H](c2ccc3sc(C)nc3c2)C[C@@H]2O[C@]2(C)CCC[C@H](C)[C@@H]1O [sagopilone] | peripheral neuropathy, infection, hyponatremia, diarrhea, and central ataxia | – | – | –
C/C1=C/C[C@@H](/C(C)=C/c2csc(C)n2)OC(=O)C[C@H](O)C(C)(C)C(=O)[C@H](C)[C@@H](O)[C@@H](C)CCC1 [KOS-862, Desoxyepothilone B] | – | greater activity compared with ixabepilone and patupilone | significant neurotoxicity | –
C/C(=C\c1csc(C)n1)[C@@H]1C[C@@H]2O[C@]2(C)CCC[C@H](C)[C@H](O)[C@@H](C)C(=O)C(C)(C)[C@@H](O)CC(=O)N1 [Ixabepilone, ixabepilone] | neutropenia, neuropathy, and abdominal pain/nausea | – | – | 63%
C/C(=C\c1csc(C)n1)[C@@H]1C[C@@H]2O[C@]2(C)CCC[C@H](C)[C@H](O)[C@@H](C)C(=O)C(C)(C)[C@@H](O)CC(=O)O1 [patupilone] | diarrhea, peripheral neuropathy, and fatigue | – | – | –
